This note sets out measurements from patent US4327088A, “Phosphonooxy- or glycosyloxy-substituted acrylophenones, compositions and uses thereof” (priority 1979, dated 1982).

One data set relates to rhinovirus HGP. Kind of data set: Inhibition of viral cytopathogenic effect (rhinovirus HGP in HeLa cells). The format is cell-based. The settings on record: Enterovirus, 48 h, read-out: Minimal Inhibitory Concentration against rhinovirus HGP. How it is done:
Inhibition of viral cytopathogenic effect
A suspension of HeLa cells (6×10^4) was mixed with rhinovirus HGP (3×10^3 PFU) (plaque forming units) and was plated in a microtest plate where serially diluted compounds to be tested were contained. The cells were then cultured with Eagle's minimum essential medium containing 2% calf serum, 1% tryptose phosphate broth, 100 μg/ml of streptomycin sulfate and 20 unit/ml of penicillin G. Viral c.p.e. (cytopathogenic effect) was observed by a microscope after 2 days culture at 33° C
The antiviral activity of the tested compounds is expressed by the minimal inhibitory concentration at which dose viral c.p.e. is inhibited by 50% as compared to the control culture.

The nature of the next data set: Acute toxicity in mice. Details: species or system ddy mice. Particulars: mouse, in vivo, day 21.
In another data set the test system is Coxsackie virus B1. Kind of data set: Antiviral activity against lethal infection of Coxsackie virus B1 in mice. It is filed as in vivo, ddy mice. Particulars: up to 21 days. On the procedure:
The antiviral activities of compounds of the invention were tested against lethal infection of Coxsackie virus B1 in mice. ddy Mice weighing about 15 g were infected intraperitoneally (i.p.) by about LD50 of the virus. The infected mice were then administered 4 times with the compounds either by oral (p.o.) or intravenous (i.v.) route at -2, 7, 22 and 31 hrs. after infection. The survivals were recorded up to 21 days.

Setting [1] is: ip, i.p. single dose, ddy mice 15 ~ 20 g, dissolved in dimethylsulfoxide, read-out: LD50, i.p. route.
The mark [2] stands for this setting: po, ddy mice, suspended in 0.5% carboxymethyl cellulose, read-out: LD50, p.o. route.

Converted amounts (≈) assume the structure as drawn. Like-named read-outs stand apart in the source and are kept apart here.

The term LD50 denotes the dose at which mortality reaches 50%. For the compound `COc1cc(OC)c(C(=O)/C=C/c2ccc3c(c2)OCO3)c(OP(=O)(O)O)c1` [2',4'-dimethoxy-3,4-(methylenedioxy)-6'-(phosphonooxy)chalcone], in the data set with rhinovirus HGP, the IC50 was found to be 0.06 µg/mL (≈ 0.147 µM). Moreover, the results for the LD50 at 504 h in the data set “Acute toxicity in mice” (setting [1]) and in the data set “Acute toxicity in mice” (setting [2]) were above 500 mg/kg and above 1000 mg/kg, respectively. Further, the soluble in water entry in the data set “Solubility in water” is “soluble in water”.

In the case of `COc1cc(OC)c(C(=O)/C=C/c2ccc(C)o2)c(OP(=O)(O)O)c1` [2',4'-dimethoxy-3-(5-methyl-2-furyl)-6'-(phosphonooxy)acrylophenone], in the data set on rhinovirus HGP, the IC50 lay in the range of 0.04 to 0.1 µg/mL (≈ 0.109 to 0.272 µM). For the same compound, the LD50 at 504 h in the data set “Acute toxicity in mice” (setting [1]) was above 500 mg/kg; in “Acute toxicity in mice” (setting [2]), above 1200 mg/kg. Further, the soluble in water entry in “Solubility in water” was “soluble in water”.

For the compound `COc1cc(OC)c(C(=O)/C=C/c2ccc(SC)cc2)c(OP(=O)(O)O)c1` [2',4'-dimethoxy-4-(methylthio)-6'-(phosphonooxy)chalcone], the IC50 in the data set with rhinovirus HGP was determined as 0.02 µg/mL (≈ 0.0487 µM). In addition, the figures for the LD50 at 504 h in the data set “Acute toxicity in mice” (setting [1]) and in the data set “Acute toxicity in mice” (setting [2]) were above 500 mg/kg and above 1000 mg/kg, respectively. Also, the soluble in water result in “Solubility in water” is on record as “soluble in water”.

Take `COc1cc(OC)c(C(=O)/C=C/c2ccc(C)cc2)c(OP(=O)(O)O)c1` [2',4'-dimethoxy-4-methyl-6'-(phosphonooxy)chalcone]: the IC50 in the data set on rhinovirus HGP is 0.02 µg/mL (≈ 0.0529 µM). Further, the LD50 at 504 h is above 500 mg/kg in “Acute toxicity in mice” (setting [1]) and above 2000 mg/kg in “Acute toxicity in mice” (setting [2]). In addition, the soluble in water result in “Solubility in water” is “soluble in water”.

For `COc1cc(OC)c(C(=O)/C=C/c2cccs2)c(OP(=O)(O)O)c1` [2',4'-dimethoxy-6'-(phosphonooxy)-3-(2-thienyl)acrylophenone], the IC50 with rhinovirus HGP lay within 0.04 to 0.1 µg/mL (≈ 0.108 to 0.27 µM). Besides, the LD50 at 504 h in the data set “Acute toxicity in mice” (setting [1]) is above 500 mg/kg; in the data set “Acute toxicity in mice” (setting [2]) it was above 1000 mg/kg. Moreover, in “Solubility in water”, the soluble in water entry is listed as “soluble in water”.

In the case of `COc1ccc(/C=C/C(=O)c2c(OC)cc(OC)cc2OC(=O)c2ccc(OC)cc2)cc1` [2',4,4'-trimethoxy-6'-(4-methoxybenzoyloxy)chalcone], in the data set on rhinovirus HGP, the IC50 lay in the range of 0.03 to 0.1 µg/mL (≈ 0.0669 to 0.223 µM). In addition, the LD50 at 504 h in the data set “Acute toxicity in mice” (setting [1]) was above 500 mg/kg; in “Acute toxicity in mice” (setting [2]), above 1000 mg/kg.

With `COc1ccc(/C=C/C(=O)c2c(OC)cc(OC)cc2OP(=O)(O)O)cc1` [2',4,4'-trimethoxy-6'-(phosphonooxy)chalcone], in the data set on rhinovirus HGP, the IC50 is 0.03 to 0.1 µg/mL (≈ 0.0761 to 0.254 µM). Also, the “% Survival” value in the data set with Coxsackie virus B1 (5 mg/kg × 4 i.v.) was 20%; with Coxsackie virus B1 (10 mg/kg × 4 i.v.), 60%; with Coxsackie virus B1 (20 mg/kg × 4 p.o.) it was 10%; in the data set with Coxsackie virus B1 (40 mg/kg × 4 p.o.), 50%; in the data set with Coxsackie virus B1 (80 mg/kg × 4 p.o.), 70%. In addition, the LD50 at 504 h in the data set “Acute toxicity in mice” (setting [1]) is above 500 mg/kg; in the data set “Acute toxicity in mice” (setting [2]), above 1000 mg/kg. In addition, in the data set “Solubility in water”, the soluble in water entry was “soluble in water”.

Consider `CC[N+](CC)(CC)CC(=O)Oc1cc(OC)cc(OC)c1C(=O)/C=C/c1ccc(OC)cc1.[Cl-]` [2',4,4'-trimethoxy-6'-(triethylammonioacetoxy) chalcone chloride], for which the IC50 with rhinovirus HGP stood at 0.01 µg/mL. In addition, the values for the LD50 at 504 h in the data set “Acute toxicity in mice” (setting [1]) and in the data set “Acute toxicity in mice” (setting [2]) were 180 mg/kg and above 1000 mg/kg, respectively. Moreover, in the data set “Solubility in water”, the soluble in water entry was “soluble in water”.

Consider `COc1ccc(/C=C/C(=O)c2c(OC)cc(OC)cc2OC(=O)c2ccc(OC)cc2OC)cc1` [2'-(2,4-dimethoxybenzoyloxy)-4,4',6'-trimethoxychalcone], for which the IC50 in the data set on rhinovirus HGP is 0.03 to 0.1 µg/mL (≈ 0.0627 to 0.209 µM). Further, the LD50 at 504 h in the data set “Acute toxicity in mice” (setting [1]) was above 500 mg/kg; in “Acute toxicity in mice” (setting [2]), above 1000 mg/kg.

Regarding `COc1ccc(/C=C/C(=O)c2c(OC)cc(OC)cc2O[C@@H]2O[C@H](COC(C)=O)[C@@H](OC(C)=O)[C@H](OC(C)=O)[C@H]2NC(C)=O)cc1` [2'-(2-acetamido-2-deoxy-3,4,6-tri-O-acetyl-β-D-glucopyranosyloxy)-4,4',6'-trimethoxychalcone], the IC50 with rhinovirus HGP lay in the range of 0.1 to 0.3 µg/mL (≈ 0.155 to 0.466 µM). For the same compound, the LD50 at 504 h in the data set “Acute toxicity in mice” (setting [1]) was above 500 mg/kg; in “Acute toxicity in mice” (setting [2]), above 2000 mg/kg.

`COc1ccc(/C=C/C(=O)c2c(OC)cc(OC)cc2O[C@@H]2O[C@H](CO)[C@@H](O)[C@H](O)[C@H]2NC(C)=O)cc1` [2'-(2-acetamido-2-deoxy-β-D-glucopyranosyloxy)-4,4',6'-trimethoxychalcone]: the IC50 in the data set on rhinovirus HGP was 3 to 10 µg/mL (≈ 5.8 to 19.3 µM). In addition, the LD50 at 504 h in “Acute toxicity in mice” (setting [1]) was above 300 mg/kg; in “Acute toxicity in mice” (setting [2]) it was above 2000 mg/kg. The soluble in water result in “Solubility in water” is listed as “soluble in water”.

`COc1ccc(/C=C/C(=O)c2c(OC)cc(OC)cc2OC(=O)c2ccccc2)cc1` [2'-(benzoyloxy)-4,4',6'-trimethoxychalcone]: the IC50 in the data set with rhinovirus HGP fell in the range of 0.03 to 0.1 µg/mL (≈ 0.0717 to 0.239 µM). Also, the LD50 at 504 h is above 500 mg/kg in the data set “Acute toxicity in mice” (setting [1]) and above 1000 mg/kg in the data set “Acute toxicity in mice” (setting [2]).

For `COc1ccc(/C=C/C(=O)c2c(OC)cc(OC)cc2OC(=O)OCc2ccccc2)cc1` [2'-(benzyloxycarbonyloxy)-4,4',6'-trimethoxychalcone], in the data set on rhinovirus HGP, the IC50 was 0.01 to 0.03 µg/mL (≈ 0.0223 to 0.0669 µM). In addition, the LD50 at 504 h in “Acute toxicity in mice” (setting [1]) is above 500 mg/kg; in the data set “Acute toxicity in mice” (setting [2]), above 1000 mg/kg.

Consider `COc1ccc(/C=C/C(=O)c2c(OC)cc(OC)cc2OC(=O)c2ccco2)cc1` [2'-(furoyloxy)-4,4',6'-trimethoxychalcone], for which the IC50 in the data set on rhinovirus HGP came out at 0.03 µg/mL (≈ 0.0735 µM). The figures for the LD50 at 504 h in the data set “Acute toxicity in mice” (setting [1]) and in “Acute toxicity in mice” (setting [2]) were above 500 mg/kg and above 1000 mg/kg, respectively.

Take `CCOc1cc(OC)cc(OP(=O)(O)O)c1C(=O)/C=C/c1ccc(OC)cc1` [2'-ethoxy-4,4'-dimethoxy-6'-(phosphonooxy)chalcone]: the IC50 in the data set with rhinovirus HGP came out at 0.02 µg/mL (≈ 0.049 µM). For the same compound, the “% Survival” value with Coxsackie virus B1 (40 mg/kg × 4 p.o.) worked out at 30%. Further, the LD50 at 504 h was above 500 mg/kg in “Acute toxicity in mice” (setting [1]) and above 1000 mg/kg in “Acute toxicity in mice” (setting [2]). The soluble in water result in “Solubility in water” is recorded as “soluble in water”.

For `COCOc1ccc(/C=C/C(=O)c2c(O)cc(OC)cc2OC)cc1` [2'-hydroxy-4',6'-dimethoxy-4-(methoxymethoxy)chalcone], the IC50 with rhinovirus HGP lay within 0.03 to 0.1 µg/mL (≈ 0.0871 to 0.29 µM). Besides, the LD50 at 504 h in the data set “Acute toxicity in mice” (setting [1]) was above 500 mg/kg; in “Acute toxicity in mice” (setting [2]) it was above 1000 mg/kg.

Take `COc1cc(O)c(C(=O)/C=C/c2ccc3[nH]cnc3c2)c(OC)c1` [3-(5-benzimidazolyl)-2'-hydroxy-4',6'-dimethoxyacrylophenone]: the IC50 in the data set with rhinovirus HGP is 0.1 to 0.3 µg/mL (≈ 0.308 to 0.925 µM). Besides, the LD50 at 504 h is above 100 mg/kg in “Acute toxicity in mice” (setting [1]) and above 1000 mg/kg in “Acute toxicity in mice” (setting [2]).

Take `CCOc1cc(OC)c(C(=O)/C=C/c2ccc(OC)cc2)c(OP(=O)(O)O)c1` [4'-ethoxy-2',4-dimethoxy-6'-(phosphonooxy)chalcone]: the IC50 in the data set with rhinovirus HGP came to 0.03 µg/mL (≈ 0.0735 µM). In addition, the LD50 at 504 h in “Acute toxicity in mice” (setting [1]) was above 500 mg/kg; in the data set “Acute toxicity in mice” (setting [2]), above 2000 mg/kg. For the same compound, the soluble in water entry in “Solubility in water” is on record as “soluble in water”.

In the case of `COc1cc(O)c(C(=O)/C=C/c2ccc(OC(C)=O)cc2)c(OC)c1` [4-acetoxy-2'-hydroxy-4',6'-dimethoxychalcone], the IC50 in the data set with rhinovirus HGP amounted to 0.3 µg/mL (≈ 0.876 µM). For the same compound, the values for the LD50 at 504 h in the data set “Acute toxicity in mice” (setting [1]) and in the data set “Acute toxicity in mice” (setting [2]) were above 500 mg/kg and above 1000 mg/kg, respectively.

As for `CCOc1ccc(/C=C/C(=O)c2c(OC)cc(OC)cc2OP(=O)(O)O)cc1` [4-ethoxy-2',4'-dimethoxy-6'-(phosphonooxy)chalcone], in the data set with rhinovirus HGP, the IC50 was in the range of 0.006 to 0.02 µg/mL (≈ 0.0147 to 0.049 µM). The LD50 at 504 h in “Acute toxicity in mice” (setting [1]) is above 500 mg/kg; in the data set “Acute toxicity in mice” (setting [2]), above 1000 mg/kg. Moreover, the soluble in water entry in the data set “Solubility in water” was “soluble in water”.
